Experiments:
Assay in all cases: pIC50, kinobeads binding competition
Conditions in all cases: cell material: Jurkat lysate
[1] = target: INSR (UniProt P06213)
[2] = target: MAPKAPK3 (UniProt Q16644)
[3] = target: T1, PRKD2 (UniProt Q9BZL6)
T1 sequence (whole entry): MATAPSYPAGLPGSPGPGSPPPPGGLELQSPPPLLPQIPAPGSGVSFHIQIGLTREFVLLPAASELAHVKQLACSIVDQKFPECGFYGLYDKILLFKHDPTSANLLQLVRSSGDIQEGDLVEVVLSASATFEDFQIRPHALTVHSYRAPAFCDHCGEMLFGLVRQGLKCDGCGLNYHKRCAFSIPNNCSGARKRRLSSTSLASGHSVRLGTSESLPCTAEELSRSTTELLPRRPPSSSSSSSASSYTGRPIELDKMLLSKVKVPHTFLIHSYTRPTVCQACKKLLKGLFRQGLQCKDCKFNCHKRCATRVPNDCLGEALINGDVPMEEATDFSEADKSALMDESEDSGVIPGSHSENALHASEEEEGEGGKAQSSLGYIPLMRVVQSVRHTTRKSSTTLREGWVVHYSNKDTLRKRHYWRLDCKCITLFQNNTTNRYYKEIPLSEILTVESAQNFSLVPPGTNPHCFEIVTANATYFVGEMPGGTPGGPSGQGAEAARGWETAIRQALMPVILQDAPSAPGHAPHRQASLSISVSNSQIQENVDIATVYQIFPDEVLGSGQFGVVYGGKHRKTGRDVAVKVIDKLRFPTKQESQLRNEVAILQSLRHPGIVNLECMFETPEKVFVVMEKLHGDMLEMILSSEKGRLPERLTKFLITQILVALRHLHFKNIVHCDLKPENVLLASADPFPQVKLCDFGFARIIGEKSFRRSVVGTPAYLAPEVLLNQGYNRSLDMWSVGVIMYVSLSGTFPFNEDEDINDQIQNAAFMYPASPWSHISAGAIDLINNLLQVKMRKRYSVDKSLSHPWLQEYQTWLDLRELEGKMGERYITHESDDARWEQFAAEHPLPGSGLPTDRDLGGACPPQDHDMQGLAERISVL

[4] = target: T2, RIOK1 (UniProt Q9BRS2)
T2 sequence (whole entry): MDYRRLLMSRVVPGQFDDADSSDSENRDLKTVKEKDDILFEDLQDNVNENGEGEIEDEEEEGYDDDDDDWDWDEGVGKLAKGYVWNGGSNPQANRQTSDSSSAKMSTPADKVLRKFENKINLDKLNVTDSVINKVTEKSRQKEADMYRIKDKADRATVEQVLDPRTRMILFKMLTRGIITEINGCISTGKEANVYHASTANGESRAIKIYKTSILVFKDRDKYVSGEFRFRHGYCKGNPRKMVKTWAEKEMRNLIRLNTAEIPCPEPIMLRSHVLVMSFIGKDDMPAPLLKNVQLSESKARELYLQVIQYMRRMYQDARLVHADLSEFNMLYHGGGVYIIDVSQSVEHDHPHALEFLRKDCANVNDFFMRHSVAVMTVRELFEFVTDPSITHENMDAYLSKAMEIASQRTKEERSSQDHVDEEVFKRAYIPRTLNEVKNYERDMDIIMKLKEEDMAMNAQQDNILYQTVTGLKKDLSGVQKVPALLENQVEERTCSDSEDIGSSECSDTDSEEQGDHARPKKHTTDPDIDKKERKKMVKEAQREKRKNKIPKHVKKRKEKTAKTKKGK

[5] = target: T3, TEC (UniProt P42680)
T3 sequence (whole entry): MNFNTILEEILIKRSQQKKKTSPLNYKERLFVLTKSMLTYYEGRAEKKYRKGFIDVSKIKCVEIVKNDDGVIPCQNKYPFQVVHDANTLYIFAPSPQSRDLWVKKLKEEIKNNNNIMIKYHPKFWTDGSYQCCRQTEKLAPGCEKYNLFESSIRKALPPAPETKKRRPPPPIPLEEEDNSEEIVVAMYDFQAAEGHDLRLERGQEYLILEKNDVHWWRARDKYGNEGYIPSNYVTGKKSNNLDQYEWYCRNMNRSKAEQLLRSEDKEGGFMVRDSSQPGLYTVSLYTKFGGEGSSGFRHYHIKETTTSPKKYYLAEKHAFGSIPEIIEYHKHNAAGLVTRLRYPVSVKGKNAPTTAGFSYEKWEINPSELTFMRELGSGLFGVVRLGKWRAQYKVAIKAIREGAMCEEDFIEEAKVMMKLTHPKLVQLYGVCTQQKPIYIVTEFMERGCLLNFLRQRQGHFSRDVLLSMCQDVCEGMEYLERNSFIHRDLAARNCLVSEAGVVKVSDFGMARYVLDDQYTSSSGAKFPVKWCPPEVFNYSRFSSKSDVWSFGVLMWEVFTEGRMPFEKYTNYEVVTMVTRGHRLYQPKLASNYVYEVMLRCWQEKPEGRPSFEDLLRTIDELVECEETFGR

[6] = target: UniProt O96017
[7] = target: UniProt Q13233
[8] = target: UniProt Q8NI60
[9] = target: T4, UniProt Q9Y2U5
T4 sequence (whole entry): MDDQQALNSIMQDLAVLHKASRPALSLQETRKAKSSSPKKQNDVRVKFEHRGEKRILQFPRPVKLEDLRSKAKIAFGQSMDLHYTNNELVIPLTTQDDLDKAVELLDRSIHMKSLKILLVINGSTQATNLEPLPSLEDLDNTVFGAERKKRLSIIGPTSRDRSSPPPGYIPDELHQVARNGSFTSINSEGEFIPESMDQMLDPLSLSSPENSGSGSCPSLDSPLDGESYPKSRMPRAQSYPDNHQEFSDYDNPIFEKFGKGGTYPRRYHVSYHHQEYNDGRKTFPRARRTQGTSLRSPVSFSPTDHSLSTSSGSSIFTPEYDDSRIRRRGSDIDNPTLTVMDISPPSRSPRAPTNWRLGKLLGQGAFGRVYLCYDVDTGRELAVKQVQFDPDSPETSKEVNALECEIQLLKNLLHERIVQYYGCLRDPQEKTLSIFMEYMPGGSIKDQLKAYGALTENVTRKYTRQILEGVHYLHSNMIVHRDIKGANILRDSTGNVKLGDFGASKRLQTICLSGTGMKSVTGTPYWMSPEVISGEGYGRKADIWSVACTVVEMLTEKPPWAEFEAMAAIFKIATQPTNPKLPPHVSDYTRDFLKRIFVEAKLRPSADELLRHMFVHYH

Sequence of UniProt O96017 (O96017 whole entry): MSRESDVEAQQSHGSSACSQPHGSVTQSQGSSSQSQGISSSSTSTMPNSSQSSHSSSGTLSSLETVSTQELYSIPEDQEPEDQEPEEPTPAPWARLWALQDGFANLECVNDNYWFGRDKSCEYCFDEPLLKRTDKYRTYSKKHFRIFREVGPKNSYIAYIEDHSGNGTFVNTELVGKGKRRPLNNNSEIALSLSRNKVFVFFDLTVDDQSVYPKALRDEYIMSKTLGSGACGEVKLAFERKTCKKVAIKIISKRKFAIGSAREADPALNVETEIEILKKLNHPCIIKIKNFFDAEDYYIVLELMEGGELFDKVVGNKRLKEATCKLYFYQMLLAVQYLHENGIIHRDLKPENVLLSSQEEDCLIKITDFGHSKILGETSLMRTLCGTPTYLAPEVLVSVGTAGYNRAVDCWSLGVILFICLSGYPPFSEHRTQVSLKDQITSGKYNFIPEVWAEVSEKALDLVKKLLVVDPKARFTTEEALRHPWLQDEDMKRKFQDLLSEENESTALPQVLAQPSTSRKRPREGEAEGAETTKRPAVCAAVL
Sequence of INSR (P06213 whole entry): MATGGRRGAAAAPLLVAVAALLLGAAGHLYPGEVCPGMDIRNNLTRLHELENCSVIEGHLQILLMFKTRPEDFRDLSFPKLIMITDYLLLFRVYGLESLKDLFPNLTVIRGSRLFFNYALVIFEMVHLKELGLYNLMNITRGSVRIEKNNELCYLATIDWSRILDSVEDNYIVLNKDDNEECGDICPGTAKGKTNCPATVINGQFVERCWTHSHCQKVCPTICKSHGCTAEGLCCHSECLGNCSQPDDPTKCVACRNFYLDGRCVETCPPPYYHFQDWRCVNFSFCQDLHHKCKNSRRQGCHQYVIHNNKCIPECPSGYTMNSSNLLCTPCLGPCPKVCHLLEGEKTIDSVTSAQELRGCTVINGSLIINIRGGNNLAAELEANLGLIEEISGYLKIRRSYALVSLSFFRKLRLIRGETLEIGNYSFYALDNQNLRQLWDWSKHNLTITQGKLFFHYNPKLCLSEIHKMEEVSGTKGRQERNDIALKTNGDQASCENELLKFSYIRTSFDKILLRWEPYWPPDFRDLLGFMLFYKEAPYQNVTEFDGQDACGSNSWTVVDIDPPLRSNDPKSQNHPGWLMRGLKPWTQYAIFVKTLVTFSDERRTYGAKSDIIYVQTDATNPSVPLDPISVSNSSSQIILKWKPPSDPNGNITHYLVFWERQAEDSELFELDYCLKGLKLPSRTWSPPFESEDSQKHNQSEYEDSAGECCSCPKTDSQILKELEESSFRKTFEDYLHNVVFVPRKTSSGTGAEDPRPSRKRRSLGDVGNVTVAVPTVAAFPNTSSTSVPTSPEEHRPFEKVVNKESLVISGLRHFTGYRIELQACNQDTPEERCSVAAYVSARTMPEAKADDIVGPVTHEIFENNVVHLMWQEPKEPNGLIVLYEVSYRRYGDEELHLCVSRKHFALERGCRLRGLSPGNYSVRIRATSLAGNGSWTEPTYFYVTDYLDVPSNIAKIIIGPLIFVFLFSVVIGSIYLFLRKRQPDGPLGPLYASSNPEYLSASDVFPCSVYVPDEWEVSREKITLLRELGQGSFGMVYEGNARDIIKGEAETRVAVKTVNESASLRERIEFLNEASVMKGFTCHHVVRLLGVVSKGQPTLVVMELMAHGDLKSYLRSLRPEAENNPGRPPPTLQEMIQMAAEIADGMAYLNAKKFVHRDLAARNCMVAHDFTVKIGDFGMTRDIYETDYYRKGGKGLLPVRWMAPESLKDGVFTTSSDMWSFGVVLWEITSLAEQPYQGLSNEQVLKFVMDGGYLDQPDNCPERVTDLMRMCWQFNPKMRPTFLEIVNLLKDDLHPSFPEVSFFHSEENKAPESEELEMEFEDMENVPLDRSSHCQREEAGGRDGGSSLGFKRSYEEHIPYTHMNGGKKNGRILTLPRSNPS
Sequence of MAPKAPK3 (Q16644 whole entry, looked up): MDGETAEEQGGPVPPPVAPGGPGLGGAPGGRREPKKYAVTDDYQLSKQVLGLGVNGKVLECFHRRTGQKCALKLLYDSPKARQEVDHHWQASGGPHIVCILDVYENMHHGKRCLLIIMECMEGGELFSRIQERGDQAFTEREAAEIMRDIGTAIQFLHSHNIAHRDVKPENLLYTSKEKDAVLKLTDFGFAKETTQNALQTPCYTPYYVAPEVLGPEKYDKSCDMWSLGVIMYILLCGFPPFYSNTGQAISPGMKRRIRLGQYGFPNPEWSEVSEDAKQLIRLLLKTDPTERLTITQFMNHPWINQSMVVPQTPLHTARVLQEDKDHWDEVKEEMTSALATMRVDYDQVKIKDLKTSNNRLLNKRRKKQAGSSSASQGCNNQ
Sequence of UniProt Q8NI60 (Q8NI60 whole entry, looked up): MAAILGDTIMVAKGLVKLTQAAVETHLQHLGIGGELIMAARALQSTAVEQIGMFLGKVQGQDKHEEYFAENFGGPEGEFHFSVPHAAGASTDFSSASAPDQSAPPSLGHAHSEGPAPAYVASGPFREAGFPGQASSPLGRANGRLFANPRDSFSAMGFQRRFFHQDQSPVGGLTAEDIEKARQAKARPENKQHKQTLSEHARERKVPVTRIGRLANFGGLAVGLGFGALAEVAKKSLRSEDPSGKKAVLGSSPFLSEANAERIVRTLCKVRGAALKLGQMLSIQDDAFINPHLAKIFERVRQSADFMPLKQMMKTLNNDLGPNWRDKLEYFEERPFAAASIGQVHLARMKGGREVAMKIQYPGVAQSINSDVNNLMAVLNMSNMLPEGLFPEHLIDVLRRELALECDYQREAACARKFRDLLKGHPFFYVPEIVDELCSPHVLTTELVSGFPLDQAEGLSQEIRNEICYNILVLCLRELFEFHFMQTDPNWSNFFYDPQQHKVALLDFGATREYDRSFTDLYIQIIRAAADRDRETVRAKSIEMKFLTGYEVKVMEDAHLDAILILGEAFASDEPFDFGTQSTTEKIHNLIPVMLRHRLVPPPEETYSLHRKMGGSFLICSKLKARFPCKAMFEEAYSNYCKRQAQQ
Sequence of UniProt Q13233 (Q13233 whole entry): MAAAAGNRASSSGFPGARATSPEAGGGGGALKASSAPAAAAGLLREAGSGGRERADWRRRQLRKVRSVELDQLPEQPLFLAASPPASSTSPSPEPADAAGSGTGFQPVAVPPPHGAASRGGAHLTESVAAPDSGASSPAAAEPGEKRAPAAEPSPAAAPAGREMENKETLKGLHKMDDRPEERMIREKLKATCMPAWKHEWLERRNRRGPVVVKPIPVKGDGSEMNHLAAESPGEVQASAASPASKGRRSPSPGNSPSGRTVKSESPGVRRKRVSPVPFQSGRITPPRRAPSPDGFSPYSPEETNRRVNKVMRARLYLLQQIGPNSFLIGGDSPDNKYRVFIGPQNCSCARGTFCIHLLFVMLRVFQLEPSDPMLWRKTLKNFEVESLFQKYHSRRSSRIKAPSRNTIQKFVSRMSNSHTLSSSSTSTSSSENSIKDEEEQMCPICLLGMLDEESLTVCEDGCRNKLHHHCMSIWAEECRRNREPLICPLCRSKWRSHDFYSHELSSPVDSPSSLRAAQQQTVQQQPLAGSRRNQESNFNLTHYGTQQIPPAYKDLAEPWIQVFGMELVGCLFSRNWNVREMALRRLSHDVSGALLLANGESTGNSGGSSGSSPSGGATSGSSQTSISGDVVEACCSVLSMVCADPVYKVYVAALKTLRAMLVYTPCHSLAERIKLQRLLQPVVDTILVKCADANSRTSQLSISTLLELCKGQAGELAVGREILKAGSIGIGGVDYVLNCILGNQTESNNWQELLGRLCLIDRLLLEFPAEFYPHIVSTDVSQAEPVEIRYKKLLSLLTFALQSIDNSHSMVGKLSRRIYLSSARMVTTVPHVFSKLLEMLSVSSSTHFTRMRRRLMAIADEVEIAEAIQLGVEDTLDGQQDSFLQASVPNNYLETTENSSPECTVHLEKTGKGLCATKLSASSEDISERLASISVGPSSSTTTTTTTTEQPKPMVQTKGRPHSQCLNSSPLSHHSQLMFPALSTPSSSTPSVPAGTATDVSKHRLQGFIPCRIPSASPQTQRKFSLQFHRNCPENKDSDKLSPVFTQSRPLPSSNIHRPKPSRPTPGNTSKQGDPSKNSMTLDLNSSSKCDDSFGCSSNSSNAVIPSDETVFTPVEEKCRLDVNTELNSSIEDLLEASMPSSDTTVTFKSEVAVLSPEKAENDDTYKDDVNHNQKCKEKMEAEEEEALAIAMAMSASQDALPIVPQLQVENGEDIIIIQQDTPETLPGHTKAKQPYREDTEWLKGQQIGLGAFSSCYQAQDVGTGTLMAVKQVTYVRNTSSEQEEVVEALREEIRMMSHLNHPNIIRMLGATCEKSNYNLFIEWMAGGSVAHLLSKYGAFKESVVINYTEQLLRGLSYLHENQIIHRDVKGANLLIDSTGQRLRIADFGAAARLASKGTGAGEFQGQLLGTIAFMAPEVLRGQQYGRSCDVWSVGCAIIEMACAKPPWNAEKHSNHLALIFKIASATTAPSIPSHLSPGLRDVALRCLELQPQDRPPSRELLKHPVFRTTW

- pIC50 [1]: < 4.52
- pIC50 [2]: 6.8
- pIC50 [3]: < 4.52
- pIC50 [4]: < 4.52
- pIC50 [5]: < 4.52
- pIC50 [6]: < 4.52
- pIC50 [7]: < 4.52
- pIC50 [8]: < 4.52
- pIC50 [9]: < 4.52
SMILES: CCc1cnn2c(NCc3ccc[n+]([O-])c3)cc(N3CCCC[C@H]3CCO)nc12 [dinaciclib]
